US9717732B2, “Drug combination” (VERONA PHARMA PLC, priority 2013, dated 2017)
Values belong to the compound of their own block, whether it stands above or below them.

Columns and labels:
anaesthetized rats = assay: Cardiovascular interaction (safety) study, blood pressure and heart rate, i.v. bolus; format: in vivo, rat
Excerpt: This study was undertaken to determine whether RPL554 has cardiovascular interactions with a β2-adrenergic receptor agonist (salbutamol). A muscarinic receptor antagonist (atropine) was included for completeness. RPL554 is a dual PDE3/PDE4 inhibitor being developed for treatment of chronic obstructive pulmonary disease (COPD) and asthma as an inhaled bronchodilator with possible anti-inflammatory actions. […] The study design was blind and random with drugs given as pairs five minutes apart in an alternating manner, e.g., RPL554 followed by salbutamol and vice versa. […] Instead they were chosen to test for possible interactions under supra therapeutic conditions.
Doses producing a 15-30 mmHg increase in mean blood pressure (MBP) and 30-60 beats per minute increase in heart rate (HR) were chosen from an initial dose-response study for RPL554 and salbutamol. […] Thereafter, the chosen doses were examined in pairs administered 5 minutes part. […] The intention of the study was to use supra normal conditions in order to challenge for possible interactions under supra therapeutic conditions.
The studies were performed on Sprague-Dawley male rats from Charles River weighing 200-250 grms. […] For the purposes of the experiment the animals were anaesthetized with thiobutabarbital at a dose of 100 mg/kg given by the i.p. route. There was no necessity for supplemental anaesthesia and at the end of the experimental period each rat was sacrificed. The study had two parts: (I) an initial dose ranging study and (II) the interaction study. The drugs studied were: RPL554 (R), salbutamol (S), atropine (A) all dissolved in saline.
An initial dose-ranging study was performed as follows: cumulative dose-response curves for intravenous bolus doses of the three drugs were performed to determine appropriate doses of each of the three drugs for the full study. Doses of RPL554 or salbutamol producing a 15-30 mmHg increase in mean blood pressure (MBP) and 30-60 beats per minute increase in heart rate (HR) were chosen from this initial dose-response study. […] This dose-ranging study involved four rats in which cumulative doses of each of the 3 drugs were given on a dose-doubling basis. Doses of each of the drugs were given as i.v. bolus injections every 5 minutes with 1 hour between different drugs. The order of injections were: for animal 1—S, R, A; animal 2—R, A, S; animal 3—A, S, R and animal 4—R, A, S. As indicated above the doses and routes of injection where chosen as supernormal and above doses producing effects when given by inhalation.
In this study all drugs were given as a single dose by i.v. bolus injection, via a jugular vein cannula, and at a volume of 1 mL/kg. The study design was blind and random with three lines each containing four animals for a total of 12 animals.
Pairs of drugs were given to individual animals on a randomized blind basis using a line by line design where each line contained four rats with injections as follows: R1S2, S1R2, R1A2 and A1R2 (in random order where 1 indicates the first drug given and 2 indicates the second drug given 5 minutes after the first drug). A total of 3 lines were studied thus a total of 12 rats were used and none of the animals had to be replaced.

[1] = test system: passively sensitized human isolated bronchi; assay: Contraction induced by histamine in passively sensitized human bronchi; settings: RPL554 100 μM
Experimental: Human isolated bronchial rings were rotated overnight at room temperature in tubes containing KH buffer solution in the absence (non-sensitized control rings) or the presence of 10% vol^−1 sensitizing serum (sensitized rings) as described elsewhere (Watson et al., 1997; Rabe, 1998). Subjects suffering from atopic asthma (total IgE>250 U^−1 specific against common aeroallergens) during exacerbation provided signed consent for serum donation.
Sera was prepared by centrifugation of whole blood and sera samples were frozen at −80° C. in 200 ml aliquots until required.
The next morning, after removal of adhering alveolar and connective tissues, bronchial rings were transferred into an organ bath containing KH buffer (37° C.) and continuously gassed with a 95% O2/5% CO2. Tissues were pre-incubated for 30 min with RPL554 (1, 10 and 100 μM) and then followed (without washing) by the construction of concentration responses curve to histamine (10 nM-1 mM) in the presence of RPL554.
Appropriate curve-fitting to a sigmoidal model was used to calculate the effect (E), the Emax and the concentration required to cause a 50% maximal effect (EC50). The equation used was log [agonist] vs. response, Variable slope, expressed as Y=Bottom+(Top−Bottom)/{1+10^[(Log EC50−X)*HillSlope]} (Motulsky and Christopoulos, 2004; Goodman et al., 2008). […]

[2] = test system: human isolated bronchial tissues pre-contracted with acetylcholine; assay: Relaxation of human isolated bronchi pre-contracted with acetylcholine (EC70), drugs alone and in combination, synergy analysis; settings: n=5; for slope (nH): 4 parameter logistic fit
Experimental: Bronchial rings were mounted on hooks in the organ baths where one hook was attached with threaded to a stationary rod and the other hook tied with thread to an isometric force displacement transducer. […] Tallarida, 2001; Goldoni and Johansson, 2007; Boik et al., 2008; Lee, 2010). […] Goodman et al., 2008). E/Emax was expressed as percentage of Emax elicited by the contractile agents; […] The analysis of the potential synergism between RPL554 plus a β2-adrenergic receptor agonist was measured by applying the Berenbaum method, the Bliss Independence (BI) criterion and the Loewe Additivity (LA) model through curved isoboles (Berenbaum, 1977; Greco et al., 1995; Grabovsky and Tallarida, 2004; Tallarida, 2006; Goldoni and Johansson, 2007; Tallarida and Raffa, 2010). […] Lee, 2010). The BI theory for two agents is expressed by the following equation: E(x,y)=Ex+Ey-(Ex*Ey), where E is the fractional effect, and x and y are the concentrations of two compounds in a combination experiment. If the combination effect is higher than the expected value from the above equation, the interaction is considered synergistic, while if this effect is lower, the interaction is antagonistic. […] In this study, the BI equation was characterized by X=RPL554 and Y=β2-adrenergic receptor agonist. […] Using the concept of dose equivalence, the relationship a/A+b/B=1 was reformulated as b+beq (a)=B, where beq is the dose equivalent of a and solving for beq(a) by equating the two individual concentration response curves EA=f(A) and EB=f(B). The additive response (Eab) for each dose combination with respect to B was then calculated by insertion of B into EB=f(B). The difference between the observed relaxation response to the combination doses and the additive response was calculated and analysed using a one sample t-test and for multiple comparisons, the probability was adjusted for multiple comparisons using a Bonferroni correction. For illustrative purposes, the 1:1 dose combinations were analysed for synergy. […] Then, concentration response curves were constructed to test individual compound RPL554, or salbutamol alone; or RPL554 administered in combination with salbutamol in order to produce isobolar graphs (salbutamol:RPL554 and ranging from 10:1 to 1:100) as described elsewhere (Greco et al., 1995; Tallarida, 2001; Goldoni and Johansson, 2007; Boik et al., 2008; Lee, 2010).

[3] = test system: human isolated bronchial preparations; assay: Inhibition of EFS-induced contraction of human isolated bronchi; settings: after termination of drug exposure
Experimental: Regions of macroscopically normal lungs were taken from uninvolved areas resected from 24 subjects (11 male and 13 female, 60.1±1.6 years old) undergoing lobectomy surgery for lung cancer, but without a history of chronic airway disease.
Airways were immediately placed into oxygenated Krebs-Henseleit buffer solution (KH) (mM: NaCl 119.0, KCl 5.4, CaCl2 2.5, KH2PO41.2, MgSO4 1.2, NaHCO3 25.0, glucose 11.7; pH 7.4) containing the cyclooxygenase (COX) inhibitor indomethacin (5.0 μM), and transported at 4° C. from the “Regina Elena National Cancer Institute” or the “Sant'Andrea Hospital” to the Respiratory Research Laboratory in the Surgery and Medicine Faculty of “Tor Vergata University”, Rome, Italy. None of the subjects were chronically treated with theophylline, β2-agonists or glucocorticosteroids. Serum IgE levels determined on the day of surgery were in the normal range. […]
Human bronchi were placed in organ baths containing KH buffer solution (37° C.) medicated with indomethacin (5.0 μM), bubbled with 95% O2/5% CO2 and suspended under passive tension (0.5-1.0 g). […] Changes in isometric tension were measured with a transducer (Fort 10 WPI, Basile, Instruments, Italy) and the tissue responsiveness was assessed by acetylcholine (100 μM); when the response reached a plateau, rings were washed three times and allowed to equilibrate for 45 min. […]

Guinea pigs = assay: Reduction in mean arterial blood pressure after iv. administration; format: in vivo, guinea pig; settings: 20 μg/kg RPL554 iv., control (alone)
Experimental: (§1) Guinea pigs were anaesthetized and ventilated. Airway obstruction was induced by the intravenous administration of bombesin (2 μg/ml; 5 ml/hr). Bronchodilation was induced by the iv. administration of RPL554 alone at various doses, or in combination with sub maximal dose of salbutamol (20 μg/kg). Doses were selected following studies generating a dose-response curve for both salbutamol to select a dose resulting in approximately 20% reduction in airways obstruction. Total lung resistance (RL) and mean arterial blood pressure were measured. Data are expressed as % reduction in airways obstruction or blood pressure.

guinea pig airways = assay: Reversal of bombesin-induced airways obstruction (total lung resistance); format: in vivo; settings: salbutamol 20 μg/kg alone
Experimental: as §1

Structure (SMILES): CN1[C@@H]2CC[C@H]1C[C@@H](OC(=O)C(CO)c1ccccc1)C2 (some centres unmarked) [atropine]
Time to peak response, blood pressure (anaesthetized rats): 4 min | Time to peak response, heart rate (anaesthetized rats): 4 min

Structure (SMILES): COc1cc2c(cc1OC)-c1cc(=Nc3c(C)cc(C)cc3C)n(CCNC(N)=O)c(=O)n1CC2 [RPL554, 9,10-Dimethoxy-2-(2,4,6-trimethylphenylimino)-3-(N-carbamoyl-2-aminoethyl)-3,4,6,7-tetrahydro-2H-pyrimido[6,1-a]isoquinolin-4-one]
Effect on contraction induced by histamine [1]: completely abolished the contraction induced by histamine | Time to peak response, blood pressure (anaesthetized rats): 1 to 1.33 min | Time to peak response, heart rate (anaesthetized rats): 2 to 4.5 min | slope (nH) ([2]; mean±SD): 2.271±0.713 | Duration of inhibition of EFS contractile response after exposure to drug [3]: at least 5 h | reduction in mean arterial blood pressure (Guinea pigs): 37.3±6.7%

EC50 ([2]; Homo sapiens, geomean (95% CI), acetylcholine EC70, read-out: potency (EC50), relaxation): 283 nM
Structure (SMILES): CC(C)(C)NCC(O)c1ccc(O)c(CO)c1 (centres unmarked) [salbutamol]
Time to peak response, blood pressure (anaesthetized rats): approximately 20 seconds | Time to peak response, heart rate (anaesthetized rats): ~1 min | reduction in airways obstruction (guinea pig airways): 34.2±11.1% | Emax ([2]; Homo sapiens, mean±SD, acetylcholine EC70, percentage of papaverine (500 μM) induced relaxation): 78 ± 11% | slope (nH) ([2]; mean±SD): 1.572±0.482
